The source of these data is patent US20190275012A9, “SUBSTITUTED THIAZOLO-PYRIDINE COMPOUNDS AS MALT1 INHIBITORS” (Lupin Limited, priority 2016, published 2019).

The subject of one test is OCI-Ly-10 cells. As to the kind of experiment: Anticancer assay (14 days), cell viability by CCK-8. Type of test: cell-based. As to conditions: Homo sapiens, OCI-Ly10, 336 h, 14 days treatment, fresh treatment every 5th day, CCK-8 viability, read-out: Ly-10 (14d) inhibition IC50. The procedure, abridged: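 OCI-Ly-10 cells in IMDM + 20% FBS exposed to compound for 13–15 days, with media and compound refreshed every 5th day. Viability by CCK-8 absorbance at 450 nm (650 nm background); % inhibition versus 0.1% DMSO medium control.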

Test [1] concerns NF-kB transcriptional activity in HEK-293-NF-kB-Luc cell line overexpressing MALT1. The experiment in a line: NF-kB reporter assay (luciferase, MALT1 stably overexpressed). The test is classed as cell-based. Conditions: Homo sapiens, 24 h, HEK-293-NF-kB-Luc cells stably overexpressing MALT1, 24 h treatment, Bright Glo luminescence; read-out: NF-kB inhibition IC50. The method in brief: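 HEK-293-NF-κB-Luc cells stably overexpressing MALT1 were seeded overnight, then exposed to test compounds for 24 h. Bright Glo added 10 min at ambient temperature and luminescence read; % inhibition calculated against 0.1% DMSO controls.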

The next test concerns the target T1, full length MALT1 enzyme (Homo sapiens, UniProt Q9UDY8).
T1 construct: a fluorescence based assay with full length MALT1 enzyme
T1 sequence (Q9UDY8 1-824): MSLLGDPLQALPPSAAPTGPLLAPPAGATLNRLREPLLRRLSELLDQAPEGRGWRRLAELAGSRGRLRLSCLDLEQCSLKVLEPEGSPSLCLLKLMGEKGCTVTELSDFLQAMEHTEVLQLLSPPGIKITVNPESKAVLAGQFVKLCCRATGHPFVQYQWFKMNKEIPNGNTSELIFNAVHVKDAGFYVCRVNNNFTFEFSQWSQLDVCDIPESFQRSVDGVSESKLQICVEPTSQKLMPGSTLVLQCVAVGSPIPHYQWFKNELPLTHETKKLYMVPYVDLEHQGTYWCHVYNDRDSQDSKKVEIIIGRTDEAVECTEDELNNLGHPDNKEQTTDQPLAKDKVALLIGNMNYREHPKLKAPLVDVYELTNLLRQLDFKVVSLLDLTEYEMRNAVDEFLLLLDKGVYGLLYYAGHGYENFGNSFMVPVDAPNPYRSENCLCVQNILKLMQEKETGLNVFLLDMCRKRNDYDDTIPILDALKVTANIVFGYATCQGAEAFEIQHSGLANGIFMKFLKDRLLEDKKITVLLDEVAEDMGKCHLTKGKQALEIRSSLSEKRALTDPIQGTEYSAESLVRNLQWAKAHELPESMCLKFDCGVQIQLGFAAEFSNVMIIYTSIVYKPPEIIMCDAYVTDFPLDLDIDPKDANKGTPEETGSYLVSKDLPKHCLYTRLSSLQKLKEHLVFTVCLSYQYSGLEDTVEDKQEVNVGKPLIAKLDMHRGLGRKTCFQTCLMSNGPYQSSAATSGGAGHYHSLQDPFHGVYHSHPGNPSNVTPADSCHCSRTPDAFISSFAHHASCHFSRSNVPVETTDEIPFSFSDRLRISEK
As to the kind of experiment: MALT1 biochemical assay (fluorescence based, Ac-Leu-Arg-Ser-Arg-AMC cleavage). Conditions: full length MALT1 protein, 2 h pre-incubation at RT, tetrapeptide substrate Ac-Leu-Arg-Ser-Arg-AMC, read-out: Malt 1 inhibition IC50. The method in brief:
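Full-length MALT1 (100-300 ng/well) was pre-incubated with compound for 2 h at RT, then 100 μM Ac-LRSR-AMC was added for 4-12 h. Buffer was 50 mM MES, 150 mM NaCl, 0.1% CHAPS, 1 M ammonium citrate, 10 mM DTT, pH 7, with 0.5% DMSO. IC50 was derived from AMC fluorescence (ex 360/em 460 nm).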

One may read the IC50 as the concentration that gives 50% inhibition. In the case of `COC(c1c(NC(=O)Nc2cnc(-n3nccn3)c(C(F)(F)F)c2)cnc2sc(C)nc12)C(F)(F)F` (single isomer, unassigned) [Compound 95b, 1-(6-(2H-1,2,3-triazol-2-yl)-5-(trifluoromethyl)pyridin-3-yl)-3-(2-methyl-7-(2,2,2-trifluoro-1-methoxyethyl)thiazolo[5,4-b]pyridin-6-yl)urea], the IC50 lay within 0.1 to 25 nM with OCI-Ly-10 cells, 1 to 100 nM in test [1] and 1 to 50 nM at full length MALT1 enzyme.
For `CCOC(C)c1c(NC(=O)Nc2cnc(OC)c(Cl)c2)cnc2sc(C)nc12` (racemic) [Compound 162, 1-(5-Chloro-6-methoxypyridin-3-yl)-3-(7-(1-ethoxyethyl)-2-methylthiazolo[5,4-b]pyridin-6-yl)urea] the same measures were 501 to 1500 nM, 1 to 100 nM and 1 to 50 nM.
Take `COCCN(c1c(NC(=O)Nc2cnc(-n3nccn3)c(Cl)c2)cnc2sc(C)nc12)C1CC1` [Compound 49, 1-(5-Chloro-6-(2H-1,2,3-triazol-2-yl)pyridin-3-yl)-3-(7-(cyclopropyl(2-methoxyethyl)amino)-2-methylthiazolo[5,4-b]pyridin-6-yl)urea]: the values for the IC50 (with OCI-Ly-10 cells; in test [1]; on full length MALT1 enzyme) were 26 to 100 nM, 1 to 100 nM and 1 to 50 nM, respectively.
For `COC(c1c(NC(=O)Nc2cnc(-n3nccn3)c(Cl)c2)cnc2sc(C)nc12)C(C)C` (single isomer, unassigned) [Compound 79b, 1-(5-Chloro-6-(2H-1,2,3-triazol-2-yl)pyridin-3-yl)-3-(7-(1-methoxy-2-methylpropyl)-2-methylthiazolo[5,4-b]pyridin-6-yl)urea], the IC50 was in the range of 26 to 100 nM in the test on OCI-Ly-10 cells, 1 to 100 nM in test [1] and 1 to 50 nM on full length MALT1 enzyme.
Take `COc1nc(-n2nccn2)c(C(F)(F)F)cc1NC(=O)Nc1cnc2sc(C)nc2c1C(OC)C(C)C` (single isomer, unassigned) [Compound 80b, 1-(7-(1-Methoxy-2-methylpropyl)-2-methylthiazolo[5,4-b]pyridin-6-yl)-3-(2-methoxy-6-(2H-1,2,3-triazol-2-yl)-5-(trifluoromethyl)pyridin-3-yl)urea]: the IC50 was 26 to 100 nM in the test with OCI-Ly-10 cells, 1 to 100 nM in test [1] and 1 to 50 nM on full length MALT1 enzyme.
